Measurements reported in patent publication US9023860B2, “Pro-drugs for controlled release of biologically active compounds” (Signature Therapeutics, Inc., priority 2007, dated 2015).
Structures can show the parent of a compound that is named as a salt. Where two headings read alike, the source gives them in different places.

Experiment: In Vitro Cyclization Assay (disappearance of test compound in buffer, half-life of degradation)
Type: physicochemical
Details: 20° C., approximately 2.2 mM, read-out: Ave (half-life of degradation) (converted)
Description: 1. In Vitro Cyclization Assay
This assay measures the ability of a test compound of the present invention to cyclize in vitro. Also determined is the time required to effect such cyclization.
Test compounds are dissolved (approximately 2.2 mM) in 50 mM phosphate/citrate buffers at a variety of pHs, including pH 7.4 and pH 8.5. The disappearance of the test compounds is observed over time by incubating the solutions at 20° C. and periodically quantifying the concentration of the remaining compound. Since the rate of disappearance follows first order kinetics, the half-life of degradation is calculated from the slope of the regression of natural logarithm transformed data on time. For pH 10 half-life results, CPBG is used: The half-life assay is conducted in phosphate/citrate buffer to test compound stability at pH 6, pH 7.4 and pH 8.5, but citrate/phosphate/glycine buffer is used when compounds were tested at pH 10.

[1] = nominal pH 6, 50 mM phosphate/citrate buffer
[2] = nominal pH 7.4, 50 mM phosphate/citrate buffer
[3] = nominal pH 8.5, 50 mM phosphate/citrate buffer
[4] = nominal pH 10, citrate/phosphate/glycine buffer

CN(CCCN)C(=O)Oc1ccc2c3c1O[C@H]1C(=O)CC[C@H]4[C@@H](C2)N(C)CC[C@]314 [Comparison, Hydromorphone 3-(N-methyl-N-(3-amino)propyl)carbamate Hydrochloride, reference compound]
half-life at 2.2 mM [1]: 3190 h | half-life at 2.2 mM [2]: 224 h | half-life at 2.2 mM [3]: 74 h | half-life at 2.2 mM [4]: 1.33 h

CN(CC(F)(F)CN)C(=O)Oc1ccc2c3c1OC1C(=O)CCC4C(C2)N(C)CCC314 (stereo not drawn) [Example 1, Hydromorphone 3-(N-methyl-N-(3-amino-2,2-difluoro)propyl)carbamate Hydrochloride]
half-life at 2.2 mM [1]: 99.1 h | half-life at 2.2 mM [2]: 9.43 h | half-life at 2.2 mM [3]: 6.13 h | half-life at 2.2 mM [4]: 8.04 h

CN(CC(F)CN)C(=O)Oc1ccc2c3c1O[C@H]1C(=O)CC[C@H]4[C@@H](C2)N(C)CC[C@]314 (stereo partly drawn) [Example 2, Hydromorphone 3-(N-methyl-N-(3-amino-2-fluoro)propyl)carbamate Hydrochloride]
half-life at 2.2 mM [1]: 334 h | half-life at 2.2 mM [2]: 18.1 h | half-life at 2.2 mM [3]: 5.18 h | half-life at 2.2 mM [4]: 1.68 h
